Measurements reported in patent US5061791A, “4-bromo-4'-demethylepipodophyllotoxin derivatives” (Warner-Lambert Company, priority 1989, dated 1991).
Where two headings read alike, the source gives them in different places.

What was measured:
[1] = background art; cited from earlier work
[2] = tested on: tumors, including small-cell carcinoma of the lung, acute leukemia, malignant lymphoma, and testicular cancer; details: background art; cited from earlier work
[3] = tested on: L1210 murine leukemia cell line; test: In vitro antineoplastic test, L1210 leukemia (MTT, 3 days); format: cell-based; details: Mus musculus, read-out: L1210 Leukemia In Vitro Mean IC50
Protocol: (§1) Compounds of the present invention are tested for antineoplastic activity by the following in vitro L1210 and in vivo P388 leukemia protocols:
In Vitro Antineoplastic Test Protocol
The activities of compounds of the present invention are tested against the L1210 murine leukemia cell line in vitro.
[…] cells are grown in RPMI 1640 culture medium containing 10% fetal bovine serum and gentamicin (50 micrograms per milliliter). A stock solution of the test compound is prepared in the appropriate solvent and further diluted in culture medium. Sequential twofold dilutions of drug are performed with 50 microliter transfers in 96-well microliter plates followed by the addition of 50 microliters of cell suspension containing 4×10^4 cells per milliliter.
After incubation at 37° C. in a humidified atmosphere of 5% CO2 in air for three days, 10 microliters of MTT [5 milligrams/milliliter 3-(4,5-dimethyl-2-thiazol)-2,5-diphenyltetrazolium bromide]are added to each well and the plates incubated at 37° C. for 3 hours before the addition of 100 microliters of 0.15 N HCl in isopropanol. Absorbance is read within one hour on a Dynatech MR 600 plate reader at 2 test wavelength of 570 nm and a reference wavelength of 630 nm. A microcomputer program converts optical density readings to percent growth and determines IC50 values (the amount of drug required to reduce absorbance to 50% of untreated controls) using nonlinear regression analysis.

[4] = tested on: P388 murine leukemia cell line; test: In vivo antineoplastic test, P388 leukemia in mice; parameters: species or system murine (male and female CD2Fl mice)
Protocol: as §1
In Vivo Antineoplastic Test Protocol
The activities of compounds of the present invention are tested against the P388 murine leukemia cell line in vivo. This protocol tests the effectiveness of a given compounds to inhibit the growth of the transplanted P388 murine leukemia cell line in male and female CD2Fl mice. Each test included a group of six or seven mice. The test is described in detail in Cancer Chemotherapy Reports, Part 3, Volume 3, pp 1-85 (1972).
The tumor cell line is transplanted into the test animals by intraperitoneal injection of ascites fluid containing the cell line. […]
A compound is designated "toxic" if, at a given dose, no animal survives after four days following first injection of the test compound. A ratio of survival time for treated animals (T) animals relative to control (C) animals is calculated for each nontoxic dose. A criterion for efficacy is a ratio of (T/C)×100 equal to or greater than 125.

[5] = Mus musculus, P388, ip, 120 h, read-out: P388 Leukemia % T/C (survival time treated/control x 100)

COc1cc([C@@H]2c3cc4c(cc3[C@@H](O[C@@H]3O[C@@H]5CO[C@@H](c6cccs6)O[C@H]5[C@H](O)[C@H]3O)[C@H]3COC(=O)[C@H]23)OCO4)cc(OC)c1O [teniposide]
toxicity (in words) [1]: reduced toxicity
antineoplastic activity (in words) [2]: exhibited antineoplastic activity against certain tumors, including small-cell carcinoma of the lung, acute leukemia, malignant lymphoma, and testicular cancer

COc1cc([C@@H]2c3cc4c(cc3[C@@H](SCC(O)CO)[C@H]3COC(=O)[C@H]23)OCO4)cc(OC)c1O (stereo partly drawn) [Example 10]
IC50 ([3]; 72 h, L1210 cells, 3 days at 37° C., MTT): 767 nM
response vs control in vivo at 12.5 mg/kg [4, 5]: 114%

CCN(CC)CCOCCO[C@@H]1c2cc3c(cc2[C@@H](c2cc(OC)c(O)c(OC)c2)[C@H]2C(=O)OC[C@@H]21)OCO3 [Example 7, [5R-(5α,5aβ,8aα,9β)]-9-[2-[2-(diethyl-amino)ethoxy]ethoxy]-5,8,8a,9-tetrahydro-5-(4-hydroxy-3,5-dimethoxyphenyl)furo[3',4':6,7]naphtho[2,3-d]-1,3-dioxol-6(5aH)-one]
IC50 ([3]; L1210, 72 h): 253 nM
response vs control in vivo at 50 mg/kg [4, 5]: 170%

COc1cc([C@@H]2c3cc4c(cc3[C@@H](OCCN(C)CCO)[C@H]3COC(=O)[C@H]23)OCO4)cc(OC)c1O [Example 2]
IC50 ([3]; L1210, 72 h): 103 nM
response vs control in vivo at 0.38 mg/kg [4, 5]: 170%

COc1cc([C@@H]2c3cc4c(cc3[C@@H](S[C@@H]3O[C@@H]5COC(C)O[C@H]5[C@H](O)[C@H]3O)[C@H]3COC(=O)[C@H]23)OCO4)cc(OC)c1O (stereo partly drawn) [Example 11, (5α,5aα,8aα,9β)-9-[(4,6-O-ethylidene-β-D-glucopyranosyl)thio]-5,8,8a,9-tetrahydro-5-(4-hydroxy-3,5-dimethoxyphenyl)furo[3',4':6,7]naphtho[2,3-d]-1,3-dioxol-6(5aH)-one]
IC50 ([3]; L1210, 72 h): 305 nM
response vs control in vivo at 50 mg/kg [4, 5]: 182%
40-day survivors ([4]; P388, 50 mg/kg/inj, intraperitoneal once daily for five days): 3/6
antitumor activity (in words) ([4]; conclusion from the table (L1210 and P388)): highly active

COc1cc([C@@H]2c3cc4c(cc3[C@@H](O[C@@H]3O[C@@H]5CO[C@@H](C)O[C@H]5[C@H](O)[C@H]3O)[C@H]3COC(=O)[C@H]23)OCO4)cc(OC)c1O [Etoposide, etoposide, reference compound]
response vs control in vivo at 40 mg/kg ([4]; Mus musculus, P388, read-out: P388 Leukemia % T/C (survival time treated/control x 100)): 295%
60-days survivors ([4]; P388, 40 mg/kg/inj, once daily on Days 1, 5, and 9): 4/10
toxicity (in words) [1]: reduced toxicity
antineoplastic activity (in words) [2]: exhibited antineoplastic activity against certain tumors, including small-cell carcinoma of the lung, acute leukemia, malignant lymphoma, and testicular cancer

COc1cc([C@@H]2c3cc4c(cc3[C@@H](OCCN(CCO)CCO)[C@H]3COC(=O)[C@H]23)OCO4)cc(OC)c1O [Example 4]
IC50 ([3]; L1210, 72 h): 336 nM
response vs control in vivo at 1.5 mg/kg [4, 5]: 160%

CCN(CC)CCO[C@@H]1c2cc3c(cc2[C@@H](c2cc(OC)c(O)c(OC)c2)[C@H]2C(=O)OC[C@@H]21)OCO3 [Example 5, [5R-(5α,5aβ,8aα,9β)]-9-[2-(diethylamino)ethoxy]-5,8,8a,9-tetrahydro-5-(4-hydroxy-3,5-dimethoxyphenyl)furo[3',4':6,7]naphtho[2,3-d]-1,3-dioxol-6(5aH)-one]
IC50 ([3]; L1210, 72 h): 198 nM
response vs control in vivo at 3.1 mg/kg [4, 5]: 140%

COc1cc([C@@H]2c3cc4c(cc3[C@H](O)[C@H]3COC(=O)[C@H]23)OCO4)cc(OC)c1OC [podophyllotoxin]
toxicity (in words) [1]: extremely toxic
antineoplastic activity (in words) [2]: well documented

COc1cc([C@@H]2c3cc4c(cc3[C@@H](OCCN3CCOCC3)[C@H]3COC(=O)[C@H]23)OCO4)cc(OC)c1O [Example 3, [5R-(5α,5aβ,8aα,9β)]-5,8,8a,9-tetrahydro-5-(4-hydroxy-3,5-dimethoxyphenyl)-9-[2-(4morpholinyl)ethoxy]furo[3',4':6,7]naphtho[2,3-d]-1,3-dioxol-6(5aH)-one]
IC50 ([3]; L1210, 72 h): 235 nM
response vs control in vivo at 3.1 mg/kg [4, 5]: 179%

COc1cc([C@@H]2c3cc4c(cc3[C@@H](SCCN3CCOCC3)[C@H]3COC(=O)[C@H]23)OCO4)cc(OC)c1O [Example 9, [5R-(5α,5aβ,8aα,9β)]-5,8,8a,9-tetrahydro-5-(4-hydroxy-3,5-methoxyphenyl)-9-[[2-(4-morpholinyl)ethyl]thio]furo[3',4':6,7]naphtho[2,3-d]1,3-dioxol-6(5aH)-one]
IC50 ([3]; L1210, 72 h): 1390 nM
response vs control in vivo at 50 mg/kg [4, 5]: 127%

CCN(CC)CCCO[C@@H]1c2cc3c(cc2[C@@H](c2cc(OC)c(O)c(OC)c2)[C@H]2C(=O)OC[C@@H]21)OCO3 [Example 6, [5R-(5α,5aβ,8aα,9β)]-9-3-[(diethylamino)propoxy]-5,8,8a,9-tetrahydro-5-(4-hydroxy-3,5-dimethoxyphenyl)furo[3',4':6,7]naphtho[2,3-d]-1,3-dioxol-6(5aH)-one]
IC50 ([3]; L1210, 72 h): 250 nM
response vs control in vivo at 2 mg/kg [4, 5]: 137%

COc1cc([C@@H]2c3cc4c(cc3[C@@H](OCCN3CCCC3=O)[C@H]3COC(=O)[C@H]23)OCO4)cc(OC)c1O [Example 8, [5S-(5α,5aβ,8aα,9β)]-1-[2-[[5,5a,6,8,8a,9-hexahydro-9-(4-hydroxy-3,5-dimethoxyphenyl)-8-oxofuro-[3',4':6,7]naphtho[2,3-d]-1,3-dioxol-5-yl]oxy]ethyl]-2-pyrrolidinone]
IC50 ([3]; L1210, 72 h): 500 nM
response vs control in vivo at 100 mg/kg [4, 5]: 167%
